Patent publication US8247407B2, priority 2007, dated 2012)
Where “and” joins values, the source holds several entries; their conditions need not be identical. Equal entries are not always repeated. Structures can show the parent of a compound that is named as a salt.

Experiments:
[1] = tested on: patients; conditions: cited from earlier work
[2] = tested on: rats with alloxan diabetes; experiment: Hypoglycemic activity, alloxan diabetes model in rats (Example 1); assay type: in vivo, rat
Procedure: The pharmaceutical compositions for determination of anti-diabetic action had the following composition: active compound—1 g, potato starch—1 g, water—100 ml.
(§1) The comparison of anti-diabetic action of compounds was carried out using a standard model of alloxan diabetes and metmorphin as a comparative drug. The alloxan diabetes was induced by a single subcutaneous injection of water solution of alloxan hydrate (ICN Biomedicals, USA) at a dose of 150 mg/kg to rats weighting 180-200 g that have fasted for 24 hours. The following animal groups were studied: intact rats, diabetic non-treated rats, diabetic rats receiving Polfa-Kutno Ltd.″ metmorphin daily (for 23 days, 200 mg/kg); diabetic rats receiving daily (for 20 days) the abovementioned pharmaceutical compositions containing, as an active components, the compounds described in this invention: MC-200-MC-225. The compounds were administered intragastrically once a day in starch gel at a dose of 50 mg/kg rat weight.
(§2) The experimental drug doses were selected assuming the expected therapeutic doses for man and previously determined toxic doses (LD50 of studied compounds was approximately 500-1,000 mg/kg). The metmorphin dose for rats was extrapolated from the therapeutic dose for man. Drug administration was started on the third day after alloxan injection when blood glucose level increased approximately 3-fold as compared to control value. Each group consisted of 20 animals of both genders.

[3] = tested on: white rats with experimental diabetes (alloxan diabetes); experiment: Anti-diabetic, hypolipidemic and hypocholesteremic activity, alloxan diabetes model in rats (Example 2); assay type: in vivo, rat; conditions: compounds 50 mg/kg, metmorphin 200 mg/kg daily
Procedure: as §1, §2
Pharmaceutical compositions for determination of anti-diabetic action had the same composition as that given in Example I.
The comparison of the anti-diabetic action of compounds was carried out using a standard model of alloxan diabetes, as described in Example I, and metmorphin as a comparative drug.
In the course of experiment, the following parameters were recorded: animal general condition, water consumption, body mass, levels of glucose, total lipids, tri-glycerides, serum blood cholesterol, and glycosylated hemoglobin, using the generally accepted techniques (Laboratory methods of studies in clinical practice, V. V. Menshikov, Ed., Moscow, “Medicine”, 1987).

[4] = tested on: pancreatic Langerhans islets of rats with alloxan diabetes; experiment: Histological examination of the pancreas of alloxan-diabetic rats (Example 3); assay type: in vivo, rat; conditions: in 20 days after treatment; for Pancreatic Langerhans islet structure, haematoxylin-eosin staining: magnification 40×7; for Pancreatic Langerhans islet structure, aldehyde fuchsine staining: magnification 20×7
Procedure: Histological examination of pancreatic structure was carried out using the haematoxylin-eosin and aldehyde fuchsine staining of pancreatic sections using standard techniques.

[5] = diabetic rats' blood, in 10 days, compounds 50 mg/kg intragastrically once a day in starch gel, metmorphin 200 mg/kg daily
[6] = diabetic rats' blood, in 20 days, compounds 50 mg/kg intragastrically once a day in starch gel, metmorphin 200 mg/kg daily

Structure (SMILES)	Glucose content, mmol/l, in 10 days [2, 5]	Body mass ([3]; in 10 days)	Cholesterol ([3]; in 10 days)	Daily water consumption ([3]; in 10 days)	Glucose ([3]; in 10 days)	Glycosylated hemoglobin ([3]; in 10 days)	Percent of survived rats ([3]; in 10 days)	Total lipids ([3]; in 10 days)	Tri-glycerides ([3]; in 10 days)	β-lipoproteins ([3]; in 10 days)	Body mass ([3]; in 20 days)	Cholesterol ([3]; in 20 days)	Daily water consumption ([3]; in 20 days)	Glucose ([3]; in 20 days)	Glycosylated hemoglobin ([3]; in 20 days)	Percent of survived rats ([3]; in 20 days)	Total lipids ([3]; in 20 days)	Tri-glycerides ([3]; in 20 days)	β-lipoproteins ([3]; in 20 days)	Pancreatic Langerhans islet structure, haematoxylin-eosin staining [4]	further results
CN(CCOc1ccc(CC2SC(=O)NC2=O)cc1)c1ccccn1 (stereo not drawn) [Avandia]																					Fatality rate after infarction, higher than untreated group ([1]; Avandia group as compared to the untreated group): 64%; Probability of myocardial infarction, higher than untreated group ([1]; patients who took Avandia as compared to the untreated group): 43%
CCOC(=O)c1c(CSc2ccccc2)n(C)c2cc(Br)c(O)c(CN(C)C)c12 [MC-200, 1-methyl-2-phenylthiomethyl-3-carbethoxy-4-dimethylaminomethyl-5-hydroxy-6-bromoindole hydrochloride]	5.6 ± 0.2 mmol/L	180 ± 5 g	2.7 ± 0.4 mmol/L	20 ± 3 mL	5.6 ± 0.2 mmol/L	6.2 ± 0.3 mol %	100%	10.2 ± 0.5 g/L	2.5 ± 0.2 mmol/L	2.0 ± 0.2 g/L	182 ± 10 g	1.5 ± 0.2 mmol/L	24 ± 6 mL	5.4 ± 0.3 mmol/L	6.5 ± 05 mol %	75%	10.6 ± 1.0 g/L	1.5 ± 0.2 mmol/L	2.1 ± 0.3 g/L	Restoration of pancreatic Langerhans islet	Glucose content, mmol/l, in 20 days [2, 6]: 5.4 ± 0.3 mmol/L
CCOC(=O)c1c(CN2CCCC2)n(C)c2cc(-c3cccnc3)c3c(c12)CN(C)CO3 [MC-213, 9-carbethoxy-2,7-dimethyl-5-pyridine-3-yl-8-[(pyrrolidine-1-yl)methyl]-1,2,3,7-tetrahydro[1,3]oxazino [5,6-e] indole trihydrochloride]		185 ± 5 g	2.7 ± 0.5 mmol/L	26 ± 5 mL	5.8 ± 0.3 mmol/L	6.4 ± 0.3 mol %	90%	10.5 ± 0.5 g/L	2.5 ± 0.3 mmol/L	2.2 ± 0.2 g/L	183 ± 10 g	1.5 ± 0.2 mmol/L	25 ± 6 mL	5.5 ± 0.3 mmol/L	6.2 ± 0.5 mol %	75%	10.4 ± 1.0 g/L	1.7 ± 0.2 mmol/L	2.1 ± 0.2 g/L		Glucose content, mmol/l, in 10 days ([2]; rat, in vivo): 5.8 ± 0.4 mmol/L; Glucose content, mmol/l, in 20 days ([2]; rat, in vivo): 5.5 ± 0.3 mmol/L
CCOC(=O)c1c(CSc2ccc3ccccc3c2)n(C)c2cc(Br)c(O)c(CN(C)C)c12 [MC-217, 1-methyl-2-β-naphthylthiomethyl-3-carbethoxy-4-dimethylaminomethyl-5-hydroxy-6-bromoindole hydrochloride]		190 ± 10 g	2.4 ± 0.2 mmol/L	25 ± 5 mL	5.2 ± 0.2 mmol/L	5.2 ± 0.2 mol %	100%	10.4 ± 0.5 g/L	2.3 ± 0.2 mmol/L	2.1 ± 0.2 g/L	185 ± 10 g	1.4 ± 0.2 mmol/L	22 ± 5 mL	4.8 ± 0.1 mmol/L	4.9 ± 0.3 mol %	100%	10.2 ± 0.3 g/L	1.5 ± 0.2 mmol/L	2.1 ± 0.2 g/L	Restoration of pancreatic Langerhans islet	Glucose content, mmol/l, in 10 days ([2]; rat, in vivo): 5.2 ± 0.2 mmol/L; Glucose content, mmol/l, in 20 days ([2]; rat, in vivo): 4.8 ± 0.3 mmol/L; Pancreatic Langerhans islet structure, aldehyde fuchsine staining [4]: Restoration of pancreatic Langerhans islet
CN(C)C(=N)N=C(N)N [Metmorphin, reference compound]	6.6 ± 0.3 mmol/L	185 ± 5 g	2.6 ± 0.3 mmol/L and 2.4 ± 0.3 mmol/L	25 ± 3 mL	6.6 ± 0.3 mmol/L and 6.4 ± 0.3 mmol/L	5.1 ± 0.1 mol % and 5.0 ± 0.1 mol %	100%	10.6 ± 0.6 g/L and 10.5 ± 0.5 g/L	2.6 ± 0.1 mmol/L	2.2 ± 0.3 g/L and 2.2 ± 0.4 g/L	180 ± 5 g	1.7 ± 0.3 mmol/L and 1.6 ± 0.3 mmol/L	20 ± 3 mL and 19 ± 3 mL	6.4 ± 0.2 mmol/L and 6.3 ± 0.2 mmol/L	6.2 ± 0.2 mol % and 6.1 ± 0.2 mol %	80%	11.6 ± 1.2 g/L and 11.5 ± 1.0 g/L	1.6 ± 0.1 mmol/L and 1.6 ± 0.2 mmol/L	2.2 ± 0.3 g/L and 2.2 ± 0.4 g/L	Restoration of pancreatic Langerhans islet	Glucose content, mmol/l, in 20 days [2, 6]: 6.4 ± 0.3 mmol/L; Pancreatic Langerhans islet structure, aldehyde fuchsine staining [4]: Restoration of pancreatic Langerhans islet
